Each structure is given as a SMILES string. “Also recorded” adds a separate entry of the source. A value given as a limit tells only on which side of the number the result lay.

The values that follow come from patent publication US4584404A, “Substituted phenoxyphenylproply dimethylamines” (priority 1983, dated 1986).

Assay [1] concerns norepinephrine uptake (synaptosomes from rat brain). As to the kind of experiment: blockade of norepinephrine uptake by synaptosomes from rat brain, in vitro, radioactive labelled compounds. It is filed as biochemical. Conditions: norepinephrine 0.48 μM. The text has this:
(§1) This blockade is shown both in vitro with radioactive labelled compounds to determine the amount of monoamine uptake by synaptosomes from rat brain, and in vivo by a variety of methods. Among the physiologically active monoamines whose uptake is blocked by the compounds of this invention are included particularly serotonin (5HT) and norepinephrine(3,4-dihydroxyphenylethanolamine). […] Tables 1 and 2 which follow set forth the results of some of the in vitro determinations of the blockade of monoamine uptake by the compounds of this invention. In the tables, column 1 gives the R substituent on the 3-phenylpropylamine and columns 2-4, the concentration in micrograms per ml. that blocks the uptake by 50 percent of the monoamines--norepinephrine, serotonin, and dopamine. At the head of each column is given the concentration of the particular monoamine used in the experiment.

For assay [2], the system named is serotonin uptake (synaptosomes from rat brain). The assay can be described thus: blockade of serotonin (5HT) uptake by synaptosomes from rat brain, in vitro, radioactive labelled compounds. It is filed as biochemical. The following applies: serotonin 0.1 μM.
From the text: as §1

The test system of assay [3] is dopamine uptake (synaptosomes from rat brain). The assay can be described thus: blockade of dopamine uptake by synaptosomes from rat brain, in vitro, radioactive labelled compounds. Conditions: dopamine 0.2 μM. It is filed as biochemical.
From the text: as §1

In a further assay the test system is NE uptake and 5HT uptake. As to the kind of experiment: NE/5HT uptake inhibition selectivity. The assay is classed as biochemical, rat. The following applies: for NE/5HT IC50 uptake ratio: ratio NE/5HT.
From the text: as §1

For assay [4] the following is noted: humans; cited from earlier work.

`CN(C)CCC(Oc1ccc(C(F)(F)F)cc1)c1ccccc1` (stereo not drawn) [p-trifluoromethylphenyloxy, N,N-dimethyl-3-(p-trifluoromethylphenoxy)-3-phenylpropylamine]: in assay [1], the “Concentration that blocks 50% of norepinephrine uptake” value was 70 µg/mL. The “Concentration that blocks 50% of serotonin uptake” value in assay [2] is “.16 µg/mL”. In addition, the “Concentration that blocks 50% of dopamine uptake” value in assay [3] was greater than 100 µg/mL. In the assay on NE uptake and 5HT uptake, the “NE/5HT IC50 uptake ratio” value was found to be 7.19.

For `Cc1ccccc1OC(CCN(C)C)c1ccccc1` (stereo not drawn) [o-tolyloxy, 3-o-tolyloxy-3-phenylpropyl dimethylamine], the “Concentration that blocks 50% of norepinephrine uptake” value in assay [1] was “.35 µg/mL”. Also, the “Concentration that blocks 50% of serotonin uptake” value in assay [2] came to 2 µg/mL. In assay [3], the “Concentration that blocks 50% of dopamine uptake” value turned out to be 0.8 µg/mL. Further, the “uptake inhibition selectivity in words” value with NE uptake and 5HT uptake (5HT vs NE, listed as IV) is given as “selective NE uptake inhibitors; also recorded: blocks NE preferentially”. Further, the “NE/5HT IC50 uptake ratio” value in the assay on NE uptake and 5HT uptake is “.5”.

On to `CNCCC(Oc1ccc(C(F)(F)F)cc1)c1ccccc1` (stereo not drawn) [fluoxetine, 3-phenyl-3-(p-trifluoromethyl)phenoxypropyl methylamine], for which the antidepressant effect result in assay [4] is listed as “highly potent antidepressant in humans”.

With `CN(C)CCC(Oc1ccc(Cl)cc1)c1ccccc1` (stereo not drawn) [p-chlorophenoxy, N,N-dimethyl 3-phenyl-3-(p-chlorophenoxy)-propylamine], the “Concentration that blocks 50% of norepinephrine uptake” value in assay [1] is “.3 µg/mL”. The “Concentration that blocks 50% of serotonin uptake” value in assay [2] was “.03 µg/mL”. Moreover, in assay [3], the “Concentration that blocks 50% of dopamine uptake” value was found to be 1.3 µg/mL. Besides, in the assay with NE uptake and 5HT uptake, the “NE/5HT IC50 uptake ratio” value is 9.88.

As for `Cc1ccc(OC(CCN(C)C)c2ccccc2)cc1` (stereo not drawn) [p-tolyloxy, N,N-dimethyl 3-(p-tolyloxy)-3-phenylpropylamine], the “Concentration that blocks 50% of norepinephrine uptake” value in assay [1] is “.015 µg/mL”. For the same molecule, the “Concentration that blocks 50% of serotonin uptake” value in assay [2] is “.4 µg/mL”. The “Concentration that blocks 50% of dopamine uptake” value in assay [3] was greater than 100 µg/mL. In the assay with NE uptake and 5HT uptake, the “NE/5HT IC50 uptake ratio” value is recorded as 5.83.
